From US20250152585A1, “PHARMACEUTICAL COMPOUND” (Duke Street Bio Limited, priority 2022, published 2025)
pIC50, pKd: −log10 of the molar value.

Columns and labels:
[1] = target: T1, N-terminally FLAG-tagged PARP2 (amino acids 1-583) (Homo sapiens, UniProt Q9UGN5); assay: PARP2 probe displacement HTRF assay; type: binding; conditions: binned Kd, probe displacement HTRF
T1 construct: N-terminally FLAG-tagged PARP2 (amino acids 1-583)
Method: Data analysis was performed identical as for PARP1.

[2] = target: T2, full length N-terminally FLAG-tagged PARP1 (Homo sapiens, UniProt P09874); assay: PARP1 probe displacement HTRF assay; conditions: probe displacement HTRF; for Selectivity: PARP1 over PARP2, ratio Kd (PARP2)/Kd (PARP1); for pKd: read-out: PARP1 HTRF, binned Kd
T2 sequence (P09874 whole entry): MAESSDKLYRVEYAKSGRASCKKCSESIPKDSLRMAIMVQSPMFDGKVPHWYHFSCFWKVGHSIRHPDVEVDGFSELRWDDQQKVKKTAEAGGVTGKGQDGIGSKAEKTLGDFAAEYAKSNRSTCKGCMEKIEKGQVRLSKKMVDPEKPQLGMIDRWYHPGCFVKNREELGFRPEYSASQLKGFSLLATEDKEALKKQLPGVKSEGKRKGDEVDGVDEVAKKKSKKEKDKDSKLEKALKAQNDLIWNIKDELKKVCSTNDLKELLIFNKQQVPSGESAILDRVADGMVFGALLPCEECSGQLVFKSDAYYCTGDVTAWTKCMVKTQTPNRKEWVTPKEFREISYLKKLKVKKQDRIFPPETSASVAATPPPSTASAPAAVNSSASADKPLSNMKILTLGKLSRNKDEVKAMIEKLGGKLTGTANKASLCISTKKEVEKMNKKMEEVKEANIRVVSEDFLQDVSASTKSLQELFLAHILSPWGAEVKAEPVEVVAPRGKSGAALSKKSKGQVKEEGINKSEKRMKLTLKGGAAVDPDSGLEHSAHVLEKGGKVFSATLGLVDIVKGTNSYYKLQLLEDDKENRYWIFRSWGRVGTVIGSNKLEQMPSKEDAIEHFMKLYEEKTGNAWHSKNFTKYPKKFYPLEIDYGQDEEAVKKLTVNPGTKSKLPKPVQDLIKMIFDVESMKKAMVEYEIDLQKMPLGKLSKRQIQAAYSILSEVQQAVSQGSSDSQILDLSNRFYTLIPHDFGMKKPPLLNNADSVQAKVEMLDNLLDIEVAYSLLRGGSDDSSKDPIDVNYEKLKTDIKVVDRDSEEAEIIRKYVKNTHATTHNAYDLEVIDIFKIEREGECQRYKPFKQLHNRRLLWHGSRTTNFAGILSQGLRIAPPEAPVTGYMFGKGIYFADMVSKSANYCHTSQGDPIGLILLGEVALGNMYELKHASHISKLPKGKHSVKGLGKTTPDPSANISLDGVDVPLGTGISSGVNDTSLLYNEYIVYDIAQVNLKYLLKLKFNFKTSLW

[3] = target: T2, full length N-terminally FLAG-tagged PARP1; assay: PARP1 biochemical DELFIA assay (auto-PARylation); parameters: recombinant full length human N-terminally FLAG-tagged PARP1; conditions: binned IC50, biochemical auto-PARylation assay

T1 sequence (Q9UGN5 whole entry, the tested form may be a part): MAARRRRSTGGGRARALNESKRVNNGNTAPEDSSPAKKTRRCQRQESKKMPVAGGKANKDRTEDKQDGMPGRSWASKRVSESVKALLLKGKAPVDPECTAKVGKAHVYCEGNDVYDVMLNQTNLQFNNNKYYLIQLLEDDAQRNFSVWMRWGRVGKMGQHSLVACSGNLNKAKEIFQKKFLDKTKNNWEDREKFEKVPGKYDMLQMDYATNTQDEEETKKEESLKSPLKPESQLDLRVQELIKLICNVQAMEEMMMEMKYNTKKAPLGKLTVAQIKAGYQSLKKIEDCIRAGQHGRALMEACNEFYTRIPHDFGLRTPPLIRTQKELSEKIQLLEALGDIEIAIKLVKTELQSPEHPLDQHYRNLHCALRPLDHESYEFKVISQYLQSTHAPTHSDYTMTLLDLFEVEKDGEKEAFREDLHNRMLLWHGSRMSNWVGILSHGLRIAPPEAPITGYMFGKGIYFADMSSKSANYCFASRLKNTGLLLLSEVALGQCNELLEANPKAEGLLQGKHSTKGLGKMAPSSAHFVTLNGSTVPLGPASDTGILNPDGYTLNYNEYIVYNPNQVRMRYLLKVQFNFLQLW

Structure (SMILES)	pKd [1]	Selectivity [2]	pKd [2]	pIC50 [3]
CNC(=O)c1ccc(N2CCC(N3CCC(F)(c4nc5ccccc5c(=O)[nH]4)C3)CC2)cn1 (single isomer, unassigned) [Compound 328a]	< 5.00	+ (+ indicates a value of 10 to less than 50)	6.00 to 7.00	6.00 to 7.00
CNC(=O)c1ccc(N2CCC(N3CCC(F)(c4nc5ccccc5c(=O)[nH]4)C3)CC2)cn1 (single isomer, unassigned) [Compound 328b]	< 5.00	+++ (+++ indicate a value of at least 100)	7.00 to 8.00	7.00 to 8.00
CNC(=O)c1ccc(N2CCC(N3CCC(c4cc5c(F)cncc5c(=O)[nH]4)C3)CC2)cn1 (single isomer, unassigned) [Compound 331a]	6.00 to 7.00	+++ (+++ indicate a value of at least 100)	> 8.00	> 8.00
CNC(=O)c1ccc(N2CCC(N3CCC(c4cc5c(F)cncc5c(=O)[nH]4)C3)CC2)cn1 (single isomer, unassigned) [Compound 331b]	5.00 to 6.00	+++ (+++ indicate a value of at least 100)	7.00 to 8.00	7.00 to 8.00
CCc1ccc(C2CCN(C3CCN(c4ccc(C#N)cn4)CC3)C2)[nH]c1=O (single isomer, unassigned) [Compound 332b]	5.00 to 6.00	+++ (+++ indicate a value of at least 100)	> 8.00	> 8.00
CC(=O)NC(=O)c1ccc(N2CCC(N3CCC(c4cc5ccccc5c(=O)[nH]4)C3)CC2)cn1 (single isomer, unassigned) [Compound 333a]	6.00 to 7.00	+++ (+++ indicate a value of at least 100)	> 8.00	> 8.00
CC(=O)NC(=O)c1ccc(N2CCC(N3CCC(c4cc5ccccc5c(=O)[nH]4)C3)CC2)cn1 (single isomer, unassigned) [Compound 333b]	5.00 to 6.00	+++ (+++ indicate a value of at least 100)	7.00 to 8.00	7.00 to 8.00
CCc1ccc(C2CCN(C3CCN(c4ccc(C(=O)NC5CC5)nc4)CC3)C2)[nH]c1=O (single isomer, unassigned) [Compound 338a]	6.00 to 7.00	+++ (+++ indicate a value of at least 100)	> 8.00	> 8.00
CCc1ccc(C2CCN(C3CCN(c4ccc(C(=O)NC5CC5)nc4)CC3)C2)[nH]c1=O (single isomer, unassigned) [Compound 338b]	5.00 to 6.00	++ (++ indicates a value of 50 to less than 100)	7.00 to 8.00	7.00 to 8.00
O=C(NC1CC1)c1ccc(N2CCC(N3CCC(c4cc5cccc(F)c5c(=O)[nH]4)C3)CC2)cn1 (single isomer, unassigned) [Compound 339b]	6.00 to 7.00	+++ (+++ indicate a value of at least 100)	> 8.00	> 8.00
N#Cc1ccc(N2CCC(N3CCC(c4cc5cccc(F)c5c(=O)[nH]4)C3)CC2)nc1 (single isomer, unassigned) [Compound 340a]	6.00 to 7.00	+++ (+++ indicate a value of at least 100)	> 8.00	> 8.00
N#Cc1ccc(N2CCC(N3CCC(c4cc5cccc(F)c5c(=O)[nH]4)C3)CC2)nc1 (single isomer, unassigned) [Compound 340b]	6.00 to 7.00	+ (+ indicates a value of 10 to less than 50)	7.00 to 8.00	7.00 to 8.00
CC(=O)NC(=O)c1ccc(N2CCC(N3CCC(c4cc5ccccc5c(=O)[nH]4)C3)CC2)cc1 (single isomer, unassigned) [Compound 341a]	6.00 to 7.00	+++ (+++ indicate a value of at least 100)	> 8.00	> 8.00
CC(=O)NC(=O)c1ccc(N2CCC(N3CCC(c4cc5ccccc5c(=O)[nH]4)C3)CC2)cc1 (single isomer, unassigned) [Compound 341b]	6.00 to 7.00	+ (+ indicates a value of 10 to less than 50)	7.00 to 8.00	7.00 to 8.00
CS(=O)(=O)NC(=O)c1ccc(N2CCC(N3CCC(c4cc5ccccc5c(=O)[nH]4)C3)CC2)cc1 (single isomer, unassigned) [Compound 342a]	6.00 to 7.00	− (− indicates a value of less than 10)	6.00 to 7.00	6.00 to 7.00
CS(=O)(=O)NC(=O)c1ccc(N2CCC(N3CCC(c4cc5ccccc5c(=O)[nH]4)C3)CC2)cc1 (single isomer, unassigned) [Compound 342b]	7.00 to 8.00	+ (+ indicates a value of 10 to less than 50)	> 8.00	> 8.00
CNC(=O)c1ccc(N2CCC(N3CCC(c4cc5ncc(Cl)cc5c(=O)[nH]4)C3)CC2)c(F)n1 (single isomer, unassigned) [Compound 344a]	< 5.00	+++ (+++ indicate a value of at least 100)	> 8.00	> 8.00

Structure (SMILES)	pKd [1]	Selectivity [2]	pKd [2]	pIC50 [3]
CNC(=O)c1ccc(N2CCC(N3CCC(c4cc5cccc(F)c5c(=O)[nH]4)C3)CC2)c(C#N)c1 (single isomer, unassigned) [Compound 345a]	6.00 to 7.00	+++ (+++ indicate a value of at least 100)	> 8.00	> 8.00
CNS(=O)(=O)c1ccc(N2CCC(N3CCC(c4cc5ccccc5c(=O)[nH]4)C3)CC2)cc1 (single isomer, unassigned) [Compound 346a]	5.00 to 6.00	+++ (+++ indicate a value of at least 100)	> 8.00	> 8.00
O=C(NC1CC1)c1ccc(N2CCC(N3CCC(c4cc5cccc(F)c5c(=O)[nH]4)C3)CC2)c(F)n1 (single isomer, unassigned) [Compound 349a]	< 5.00	+++ (+++ indicate a value of at least 100)	> 8.00	> 8.00
CCc1ccc(C2CCN(C3CCN(c4ccc(C(=O)NC)cc4)CC3)C2)[nH]c1=O (single isomer, unassigned) [Compound 355a]	5.00 to 6.00	− (− indicates a value of less than 10)	6.00 to 7.00	6.00 to 7.00
CCc1ccc(C2CCN(C3CCN(c4ccc(C(=O)NC)cc4)CC3)C2)[nH]c1=O (single isomer, unassigned) [Compound 355b]	6.00 to 7.00	+++ (+++ indicate a value of at least 100)	> 8.00	> 8.00
N#Cc1ccc(N2CCC(N3CCC(c4cc5cccc(F)c5c(=O)[nH]4)C3)CC2)c(F)c1 (single isomer, unassigned) [Compound 356b]	5.00 to 6.00	+ (+ indicates a value of 10 to less than 50)	6.00 to 7.00	6.00 to 7.00
CNC(=O)c1ccc(N2CCC(N3CCC(c4cc5cc(O)ccc5c(=O)[nH]4)C3)CC2)cn1 (single isomer, unassigned) [Compound 357b]	5.00 to 6.00	+++ (+++ indicate a value of at least 100)	> 8.00	7.00 to 8.00
CCc1cc(C)c(C2CCN(C3CCN(c4ccc(C(=O)NC)nc4)CC3)C2)[nH]c1=O (single isomer, unassigned) [Compound 363b]	5.00 to 6.00	+++ (+++ indicate a value of at least 100)	> 8.00	> 8.00
CCc1ccc(C2CCN(C3CCN(c4ccc(C(=O)NC)cc4F)CC3)C2)[nH]c1=O (single isomer, unassigned) [Compound 366b]	6.00 to 7.00	++ (++ indicates a value of 50 to less than 100)	> 8.00	> 8.00
CNC(=O)c1ccc(N2CCC(N3CCC(c4[nH]c(=O)c5cc(F)ccc5c4F)C3)CC2)cn1 (single isomer, unassigned) [Compound 370a]	6.00 to 7.00	+++ (+++ indicate a value of at least 100)	> 8.00	> 8.00
CNC(=O)c1ccc(N2CCC(N3CCC(c4[nH]c(=O)c5cc(F)ccc5c4F)C3)CC2)cn1 (single isomer, unassigned) [Compound 370b]	7.00 to 8.00	++ (++ indicates a value of 50 to less than 100)	> 8.00	> 8.00
CNC(=O)c1ccc(N2CCC(N3CCC(c4cc5cccc(F)c5c(=O)[nH]4)C3)CC2)c(F)c1 (single isomer, unassigned) [Compound 371a]	7.00 to 8.00	+++ (+++ indicate a value of at least 100)	> 8.00	> 8.00
CNC(=O)c1ccc(N2CCC(N3CCC(c4cc5cccc(F)c5c(=O)[nH]4)C3)CC2)c(F)c1 (single isomer, unassigned) [Compound 371b]	5.00 to 6.00	++ (++ indicates a value of 50 to less than 100)	7.00 to 8.00	7.00 to 8.00
O=C(NC1CC1)c1ccc(N2CCC(N3CCC(c4cc5ncc(F)cc5c(=O)[nH]4)C3)CC2)cn1 (single isomer, unassigned) [Compound 372a]	6.00 to 7.00	+ (+ indicates a value of 10 to less than 50)	> 8.00	> 8.00
O=C(NC1CC1)c1ccc(N2CCC(N3CCC(c4cc5ncc(F)cc5c(=O)[nH]4)C3)CC2)cn1 (single isomer, unassigned) [Compound 372b]	7.00 to 8.00	+++ (+++ indicate a value of at least 100)	> 8.00	> 8.00
O=c1[nH]c(C2CCN(C3CCN(c4ccc(OC(F)F)nc4)CC3)C2)cc2ccc(F)cc12 (single isomer, unassigned) [Compound 374a]	6.00 to 7.00	+ (+ indicates a value of 10 to less than 50)	7.00 to 8.00	7.00 to 8.00
